Reference: ChEMBL document CHEMBL3085643, “Synthesis and evaluation in monkey of [(18)F]4-fluoro-N-methyl-N-(4-(6-(methylamino)pyrimidin-4-yl)thiazol-2-yl)benzamide ([(18)F]FIMX): a promising radioligand for PET imaging of brain metabotropic glutamate receptor 1 (mGluR1)” (J Med Chem, 2013)

Key:
[1] = target: Alpha-2A adrenergic receptor (Homo sapiens, UniProt P08913); test: Binding affinity to human alpha-2A adrenergic receptor by PDSP assay
[2] = target: Alpha-2C adrenergic receptor (Homo sapiens, UniProt P18825); test: Binding affinity to human alpha-2C adrenergic receptor by PDSP assay
Histamine H1 receptor = Histamine H1 receptor (Homo sapiens, UniProt P35367); test: Binding affinity to human histamine H1 receptor by PDSP assay
[3] = target: 5-hydroxytryptamine receptor 1D (Homo sapiens, UniProt P28221); test: Binding affinity to human 5-HT1D receptor by PDSP assay
D(1B) dopamine receptor = D(1B) dopamine receptor (Homo sapiens, UniProt P21918); test: Binding affinity to human dopamine D5 receptor by PDSP assay
[4] = target: 5-hydroxytryptamine receptor 6 (Homo sapiens, UniProt P50406); test: Binding affinity to human 5-HT6 receptor by PDSP assay
5-hydroxytryptamine receptor 6, sequence (P50406 whole entry): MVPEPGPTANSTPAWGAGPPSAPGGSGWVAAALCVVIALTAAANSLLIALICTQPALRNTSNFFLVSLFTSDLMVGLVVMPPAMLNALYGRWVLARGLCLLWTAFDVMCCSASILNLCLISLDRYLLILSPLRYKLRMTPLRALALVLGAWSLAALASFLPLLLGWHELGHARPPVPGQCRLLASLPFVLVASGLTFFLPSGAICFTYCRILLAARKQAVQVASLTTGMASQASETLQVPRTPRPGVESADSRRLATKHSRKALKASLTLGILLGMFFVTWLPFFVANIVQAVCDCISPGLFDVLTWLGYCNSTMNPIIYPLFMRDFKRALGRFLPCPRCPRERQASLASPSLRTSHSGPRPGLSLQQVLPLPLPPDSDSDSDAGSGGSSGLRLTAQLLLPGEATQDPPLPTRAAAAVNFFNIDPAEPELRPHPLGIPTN

[5] = target: Sodium-dependent serotonin transporter (Homo sapiens, UniProt P31645); test: Binding affinity to human SERT by PDSP assay
[6] = target: Beta-1 adrenergic receptor (Homo sapiens, UniProt P08588); test: Binding affinity to human beta1 adrenergic receptor by PDSP assay
[7] = target: Metabotropic glutamate receptor 5 (Rattus norvegicus, UniProt P31424); test: Binding affinity to mGluR5 in rat brain; type: tissue-based
[8] = target: 5-hydroxytryptamine receptor 5A (Homo sapiens, UniProt P47898); test: Binding affinity to human 5-HT5A receptor by PDSP assay
[9] = Binding affinity to BZP site in rat brain by PDSP assay; type: tissue-based
[10] = target: Beta-3 adrenergic receptor (Homo sapiens, UniProt P13945); test: Binding affinity to human beta3 adrenergic receptor by PDSP assay
[11] = target: Delta-type opioid receptor (Homo sapiens, UniProt P41143); test: Binding affinity to human delta opioid receptor by PDSP assay
[12] = target: Alpha-2B adrenergic receptor (Homo sapiens, UniProt P18089); test: Binding affinity to human alpha-2B adrenergic receptor by PDSP assay
[13] = target: Alpha-1A adrenergic receptor (Homo sapiens, UniProt P35348); test: Binding affinity to human alpha-1A adrenergic receptor by PDSP assay
[14] = target: Sigma non-opioid intracellular receptor 1 (Homo sapiens, UniProt Q99720); test: Binding affinity to human sigma-1 receptor by PDSP assay
[15] = target: Muscarinic acetylcholine receptor M2 (Homo sapiens, UniProt P08172); test: Binding affinity to human muscarinic M2 receptor by PDSP assay
[16] = target: 5-hydroxytryptamine receptor 7 (Homo sapiens, UniProt P34969); test: Binding affinity to human 5-HT7 receptor by PDSP assay
5-hydroxytryptamine receptor 7, sequence (P34969 whole entry): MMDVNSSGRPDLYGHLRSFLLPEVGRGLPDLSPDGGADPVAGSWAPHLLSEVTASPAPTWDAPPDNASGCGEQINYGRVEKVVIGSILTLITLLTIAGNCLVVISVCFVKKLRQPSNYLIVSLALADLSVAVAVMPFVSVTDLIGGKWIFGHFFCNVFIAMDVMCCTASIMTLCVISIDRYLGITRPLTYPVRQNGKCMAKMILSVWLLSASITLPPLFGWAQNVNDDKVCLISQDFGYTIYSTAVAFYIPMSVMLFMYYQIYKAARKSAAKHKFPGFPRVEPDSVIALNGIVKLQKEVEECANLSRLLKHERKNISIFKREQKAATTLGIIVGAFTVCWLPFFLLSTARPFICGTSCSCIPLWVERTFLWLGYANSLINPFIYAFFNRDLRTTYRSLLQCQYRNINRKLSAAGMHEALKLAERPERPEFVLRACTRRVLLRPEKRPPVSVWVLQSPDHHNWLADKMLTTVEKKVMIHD

[17] = target: Alpha-1B adrenergic receptor (Homo sapiens, UniProt P35368); test: Binding affinity to human alpha-1B adrenergic receptor by PDSP assay
Histamine H3 receptor = Histamine H3 receptor (Homo sapiens, UniProt Q9Y5N1); test: Binding affinity to human histamine H3 receptor by PDSP assay
D(1A) dopamine receptor = D(1A) dopamine receptor (Homo sapiens, UniProt P21728); test: Binding affinity to human dopamine D1 receptor by PDSP assay
[18] = target: Sodium-dependent noradrenaline transporter (Homo sapiens, UniProt P23975); test: Binding affinity to human NET by PDSP assay
Sodium-dependent noradrenaline transporter, sequence (P23975 whole entry): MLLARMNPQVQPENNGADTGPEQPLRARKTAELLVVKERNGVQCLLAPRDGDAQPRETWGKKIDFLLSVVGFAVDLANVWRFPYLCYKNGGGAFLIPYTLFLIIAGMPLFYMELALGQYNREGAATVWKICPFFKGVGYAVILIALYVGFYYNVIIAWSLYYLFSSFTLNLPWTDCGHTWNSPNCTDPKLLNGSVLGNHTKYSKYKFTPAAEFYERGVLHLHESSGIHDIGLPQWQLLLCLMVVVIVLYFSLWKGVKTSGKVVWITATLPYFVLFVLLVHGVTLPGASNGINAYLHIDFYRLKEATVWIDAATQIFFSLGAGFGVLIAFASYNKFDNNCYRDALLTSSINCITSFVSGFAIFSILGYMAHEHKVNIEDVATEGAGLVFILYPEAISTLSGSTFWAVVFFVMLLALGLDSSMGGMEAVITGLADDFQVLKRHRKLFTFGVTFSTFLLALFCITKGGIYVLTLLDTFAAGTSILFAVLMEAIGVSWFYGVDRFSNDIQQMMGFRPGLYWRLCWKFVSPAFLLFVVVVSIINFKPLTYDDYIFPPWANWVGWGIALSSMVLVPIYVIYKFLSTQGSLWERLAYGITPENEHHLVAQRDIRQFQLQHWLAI

[19] = target: 5-hydroxytryptamine receptor 2B (Homo sapiens, UniProt P41595); test: Binding affinity to human 5-HT2B receptor by PDSP assay
[20] = target: 5-hydroxytryptamine receptor 1E (Homo sapiens, UniProt P28566); test: Binding affinity to human 5-HT1E receptor by PDSP assay
[21] = target: 5-hydroxytryptamine receptor 2C (Homo sapiens, UniProt P28335); test: Binding affinity to human 5-HT2C receptor by PDSP assay
[22] = Binding affinity to human sigma-2 receptor by PDSP assay
[23] = target: Muscarinic acetylcholine receptor M5 (Homo sapiens, UniProt P08912); test: Binding affinity to human muscarinic M5 receptor by PDSP assay
Translocator protein = Translocator protein (Homo sapiens, UniProt P30536); test: Binding affinity to human TSPO receptor by PDSP assay
Translocator protein, sequence (P30536 whole entry): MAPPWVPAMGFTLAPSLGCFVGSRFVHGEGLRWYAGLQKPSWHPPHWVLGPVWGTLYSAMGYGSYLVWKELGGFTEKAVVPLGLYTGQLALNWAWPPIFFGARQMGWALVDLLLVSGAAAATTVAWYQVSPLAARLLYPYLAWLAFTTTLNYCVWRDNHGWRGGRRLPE

[24] = target: Metabotropic glutamate receptor 5 (Homo sapiens, UniProt P41594); test: Binding affinity to human mGluR5 by PDSP assay
[25] = target: 5-hydroxytryptamine receptor 1B (Homo sapiens, UniProt P28222); test: Binding affinity to human 5-HT1B receptor by PDSP assay
[26] = target: Muscarinic acetylcholine receptor M3 (Homo sapiens, UniProt P20309); test: Binding affinity to human muscarinic M3 receptor by PDSP assay
[27] = target: Muscarinic acetylcholine receptor M1 (Homo sapiens, UniProt P11229); test: Binding affinity to human muscarinic M1 receptor by PDSP assay
Muscarinic acetylcholine receptor M1, sequence (P11229 whole entry): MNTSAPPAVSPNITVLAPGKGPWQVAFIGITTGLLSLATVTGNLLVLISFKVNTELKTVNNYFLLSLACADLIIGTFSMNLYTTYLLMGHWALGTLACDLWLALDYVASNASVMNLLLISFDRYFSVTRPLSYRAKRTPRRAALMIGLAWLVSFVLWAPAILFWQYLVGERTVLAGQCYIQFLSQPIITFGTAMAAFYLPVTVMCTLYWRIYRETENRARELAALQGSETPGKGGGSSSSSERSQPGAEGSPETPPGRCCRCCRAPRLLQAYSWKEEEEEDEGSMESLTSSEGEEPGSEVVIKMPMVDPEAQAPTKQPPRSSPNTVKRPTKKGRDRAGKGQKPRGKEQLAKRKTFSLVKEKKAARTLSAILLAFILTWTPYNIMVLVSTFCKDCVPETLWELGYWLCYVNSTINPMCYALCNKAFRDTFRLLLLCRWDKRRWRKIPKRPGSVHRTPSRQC

[28] = target: Alpha-1D adrenergic receptor (Homo sapiens, UniProt P25100); test: Binding affinity to human alpha-1D adrenergic receptor by PDSP assay
Alpha-1D adrenergic receptor, sequence (P25100 whole entry): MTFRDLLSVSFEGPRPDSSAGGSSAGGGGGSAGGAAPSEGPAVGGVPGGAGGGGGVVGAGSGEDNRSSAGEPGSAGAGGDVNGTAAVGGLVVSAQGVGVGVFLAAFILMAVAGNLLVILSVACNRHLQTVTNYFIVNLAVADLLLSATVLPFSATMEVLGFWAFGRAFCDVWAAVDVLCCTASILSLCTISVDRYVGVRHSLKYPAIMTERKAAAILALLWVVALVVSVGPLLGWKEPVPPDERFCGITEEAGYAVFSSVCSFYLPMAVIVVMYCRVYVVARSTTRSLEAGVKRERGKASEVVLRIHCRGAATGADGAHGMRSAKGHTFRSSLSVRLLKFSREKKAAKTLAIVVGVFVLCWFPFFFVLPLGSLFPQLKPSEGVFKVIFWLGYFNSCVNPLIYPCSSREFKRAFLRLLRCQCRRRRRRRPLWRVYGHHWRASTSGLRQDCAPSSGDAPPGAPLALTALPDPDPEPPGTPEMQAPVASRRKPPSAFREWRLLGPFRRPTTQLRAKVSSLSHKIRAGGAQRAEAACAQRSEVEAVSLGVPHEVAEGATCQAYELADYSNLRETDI

[29] = target: Kappa-type opioid receptor (Homo sapiens, UniProt P41145); test: Binding affinity to human kappa opioid receptor by PDSP assay
[30] = target: Glutamate [NMDA] receptor; test: Binding affinity to human NMDA receptor by PDSP assay
[31] = target: Beta-2 adrenergic receptor (Homo sapiens, UniProt P07550); test: Binding affinity to human beta2 adrenergic receptor by PDSP assay
Beta-2 adrenergic receptor, sequence (P07550 whole entry): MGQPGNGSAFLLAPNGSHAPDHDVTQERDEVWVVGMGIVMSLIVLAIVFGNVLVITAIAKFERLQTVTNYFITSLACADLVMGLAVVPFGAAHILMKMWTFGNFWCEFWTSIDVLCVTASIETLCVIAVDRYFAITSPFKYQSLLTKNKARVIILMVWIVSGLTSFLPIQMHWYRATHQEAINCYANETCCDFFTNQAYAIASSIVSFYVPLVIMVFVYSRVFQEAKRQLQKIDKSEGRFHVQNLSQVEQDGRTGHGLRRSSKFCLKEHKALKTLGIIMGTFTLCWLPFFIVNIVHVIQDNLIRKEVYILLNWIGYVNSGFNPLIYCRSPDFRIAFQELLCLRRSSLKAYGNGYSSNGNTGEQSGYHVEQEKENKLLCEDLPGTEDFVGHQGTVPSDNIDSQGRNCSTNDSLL

[32] = target: Muscarinic acetylcholine receptor M4 (Homo sapiens, UniProt P08173); test: Binding affinity to human muscarinic M4 receptor by PDSP assay
Muscarinic acetylcholine receptor M4, sequence (P08173 whole entry): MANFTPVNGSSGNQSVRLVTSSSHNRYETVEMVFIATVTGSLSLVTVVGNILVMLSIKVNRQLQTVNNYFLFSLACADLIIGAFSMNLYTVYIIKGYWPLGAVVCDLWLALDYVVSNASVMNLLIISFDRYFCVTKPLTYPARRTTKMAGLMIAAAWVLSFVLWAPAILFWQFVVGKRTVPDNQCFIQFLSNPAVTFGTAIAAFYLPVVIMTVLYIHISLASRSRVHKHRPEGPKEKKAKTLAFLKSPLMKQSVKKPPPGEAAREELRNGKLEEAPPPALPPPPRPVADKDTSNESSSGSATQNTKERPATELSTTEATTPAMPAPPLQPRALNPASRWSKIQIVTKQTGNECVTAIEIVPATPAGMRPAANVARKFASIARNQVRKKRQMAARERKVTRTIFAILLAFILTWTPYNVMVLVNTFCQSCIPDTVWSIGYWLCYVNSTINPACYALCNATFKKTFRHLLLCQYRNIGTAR

[33] = target: GABA-A receptor; agonist GABA site; test: Binding affinity to human GABAA receptor by PDSP assay; type: protein-complex assay
[34] = target: 5-hydroxytryptamine receptor 1A (Homo sapiens, UniProt P08908); test: Binding affinity to human 5-HT1A receptor by PDSP assay
D(4) dopamine receptor = D(4) dopamine receptor (Homo sapiens, UniProt P21917); test: Binding affinity to human dopamine D4 receptor by PDSP assay
D(4) dopamine receptor, sequence (P21917 whole entry): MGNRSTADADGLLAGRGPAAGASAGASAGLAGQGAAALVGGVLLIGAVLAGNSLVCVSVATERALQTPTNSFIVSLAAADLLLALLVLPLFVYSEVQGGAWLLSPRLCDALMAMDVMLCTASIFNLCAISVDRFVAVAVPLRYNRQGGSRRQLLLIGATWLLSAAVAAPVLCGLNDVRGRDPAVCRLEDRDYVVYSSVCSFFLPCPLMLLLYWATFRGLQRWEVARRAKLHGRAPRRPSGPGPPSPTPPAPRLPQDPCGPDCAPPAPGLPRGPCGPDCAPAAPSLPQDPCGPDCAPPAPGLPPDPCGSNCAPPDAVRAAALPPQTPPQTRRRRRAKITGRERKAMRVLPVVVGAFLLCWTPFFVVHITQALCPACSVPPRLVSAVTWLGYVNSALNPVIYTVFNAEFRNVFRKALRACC

Mu-type opioid receptor = Mu-type opioid receptor (Homo sapiens, UniProt P35372); test: Binding affinity to human mu opioid receptor by PDSP assay
D(2) dopamine receptor = D(2) dopamine receptor (Homo sapiens, UniProt P14416); test: Binding affinity to human dopamine D2 receptor by PDSP assay
[35] = target: 5-hydroxytryptamine receptor 3A (Homo sapiens, UniProt P46098); test: Binding affinity to human 5-HT3 receptor by PDSP assay
5-hydroxytryptamine receptor 3A, sequence (P46098 whole entry): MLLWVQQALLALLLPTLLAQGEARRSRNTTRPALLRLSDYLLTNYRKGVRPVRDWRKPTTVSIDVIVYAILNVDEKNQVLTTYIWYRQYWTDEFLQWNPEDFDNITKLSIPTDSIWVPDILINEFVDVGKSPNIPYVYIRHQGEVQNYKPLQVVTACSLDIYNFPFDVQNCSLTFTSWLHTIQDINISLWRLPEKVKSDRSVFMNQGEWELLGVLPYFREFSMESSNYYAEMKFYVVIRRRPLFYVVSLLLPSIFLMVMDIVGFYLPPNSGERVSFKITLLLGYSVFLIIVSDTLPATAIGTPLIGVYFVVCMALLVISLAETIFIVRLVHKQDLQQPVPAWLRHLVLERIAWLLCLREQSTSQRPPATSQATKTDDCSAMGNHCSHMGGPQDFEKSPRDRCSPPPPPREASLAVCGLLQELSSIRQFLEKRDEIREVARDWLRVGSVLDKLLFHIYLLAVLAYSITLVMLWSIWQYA

D(3) dopamine receptor = D(3) dopamine receptor (Homo sapiens, UniProt P35462); test: Binding affinity to human dopamine D3 receptor by PDSP assay
D(3) dopamine receptor, sequence (P35462 whole entry): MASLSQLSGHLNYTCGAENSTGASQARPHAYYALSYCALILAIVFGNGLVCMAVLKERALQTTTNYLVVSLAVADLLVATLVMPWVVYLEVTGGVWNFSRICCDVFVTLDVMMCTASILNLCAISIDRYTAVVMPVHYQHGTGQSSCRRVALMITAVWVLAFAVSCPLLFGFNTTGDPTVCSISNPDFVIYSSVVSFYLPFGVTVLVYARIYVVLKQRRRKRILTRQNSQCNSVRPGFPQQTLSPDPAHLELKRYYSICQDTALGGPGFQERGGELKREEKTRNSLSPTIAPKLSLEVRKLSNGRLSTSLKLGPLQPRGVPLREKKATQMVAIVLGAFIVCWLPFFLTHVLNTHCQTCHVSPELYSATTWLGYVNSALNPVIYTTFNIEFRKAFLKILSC

For `CNc1cc(-c2csc(N(C)C(=O)c3ccc(F)cc3)n2)ncn1`, the Ki [1] was > 10 µM, the Ki [2] was > 10 µM and the Ki (Histamine H1 receptor) was > 10 µM. For the same compound, the Ki [3] was > 10 µM, the Ki (D(1B) dopamine receptor) was > 10 µM and the Ki [4] was > 10 µM. The Ki [5] was > 10 µM, the Ki [6] was > 10 µM and the Ki [7] was 2.1 µM. The Ki [8] was > 10 µM, the Ki [9] was > 10 µM and the Ki [10] was > 10 µM. For the same compound, the Ki [11] was > 10 µM, the Ki [12] was > 10 µM and the Ki [13] was > 10 µM. The Ki [14] was > 10 µM, the Ki [15] was > 10 µM and the Ki [16] was > 10 µM. For the same compound, the Ki [17] was > 10 µM, the Ki (Histamine H3 receptor) was > 10 µM and the Ki (D(1A) dopamine receptor) was > 10 µM. For the same compound, the Ki [18] was > 10 µM, the Ki [19] was > 10 µM and the Ki [20] was > 10 µM. The Ki [21] was > 10 µM, the Ki [22] was > 10 µM and the Ki [23] was > 10 µM. The Ki (Translocator protein) was > 10 µM, the Ki [24] was 7.9 µM and the Ki [25] was > 10 µM. For the same compound, the Ki [26] was > 10 µM, the Ki [27] was > 10 µM and the Ki [28] was > 10 µM. For the same compound, the Ki [29] was > 10 µM, the Ki [30] was > 10 µM and the Ki [31] was > 10 µM. The Ki [32] was > 10 µM, the Ki [33] was > 10 µM and the Ki [34] was > 10 µM. For the same compound, the Ki (D(4) dopamine receptor) was > 10 µM, the Ki (Mu-type opioid receptor) was > 10 µM and the Ki (D(2) dopamine receptor) was > 10 µM. The Ki [35] was > 10 µM and the Ki (D(3) dopamine receptor) was > 10 µM.
